# Source: EP3851097A1, “CONTROLLED RELEASE FORMULATIONS” (Universidad De Zaragoza, priority 2020, dated 2021)
# Experiment: Ocular tissue pharmacokinetics of dexamethasone after intravitreal injection (HPLC)
# Details: vitreous humor
# Description: Previously, a paracentesis in the anterior chamber was performed using a 30-gauge hypodermic needle with removal of aqueous humor, to avoid an intraocular pressure elevation.
# Thirty female NZ albino rabbits were used for this study: fifteen for SCS group (50 µL-DEX/LAP suspension) and other fifteen for IVT group (100 µL).
# After administration of DEX/LAP suspension (10 mg/mL, 1:10 w/w), the rabbits were sacrificed for sampling eye tissues and subsequent ocular PK studies. Three animals were used for each sampling time point at 1, 7, 28, 84 and 168 days. A rapid intravenous injection of sodium pentobarbital (30 mg/kg) through the ear vein was performed and immediately after euthanasia, ocular tissues were collected. Following eye enucleation, the globes were snap-frozen (-40°C) and specimens were obtained by eye dissection (vitreous, lens, sclera and chorio-retina compound). DEX concentrations in ocular tissues were determined using a simple and easily accessible method by HPLC-Mss, according to the methodology described by our group in a previous study.
# The determination of DEX was carried out by HPLC-Mss method in a Waters 2695 system equipped with a Phenomenex Kinetex C18 column (75 mm × 4.6 mm × 2.6 µm) coupled to a Waters 2995 PDA detector. The mobile phase was acetonitrile/water (35:65 v/v) pumped at a flow rate of 0.2 mL/min at 35°C. Detection at 250 nm was used. The amount of DEX was calculated by a seven point calibration curve against 6-α-methylprednisolone as internal standard. Aliquots of the extraction medium (200 µL) were mixed with acetonitrile (2 mL) and 100 µL of a standard solution (20 ppm in acetonitrile). The solution was then vortexed for 1 min and sonicated for 5 min to ensure the complete mixing, and finally centrifuged at 3000 rpm for 5 min. The supernatant was collected and evaporated under vacuum, and then dissolved in 200 µL of acetonitrile, filtered through a 0.22 µm PTFE syringe filter and analyzed.
# PK data were analyzed for the best fit and were consequently modelled according to compartmental models using Microsoft Excel's "PKSolver Add-in" (Albuquerque, NM, USA), in which equations describing concentration as a function of time are used. The following PK parameters were obtained: peak concentration (Cmax), time to peak concentration (Tmax), elimination half-life (T½).
# To describe the time course-concentration after administration the following equation was used: Ctissue = C0 ∗e^(−Ke t) [formula] where C is the tissue concentration, C0 is the concentration at time to, Ke is the elimination rate constant which is derived from the elimination half-life of the drug (Ke= 0.693/T1/2).
# [1] = 100 µL intravitreal administration
smiles,measurement,setting,value
"C[C@@H]1C[C@H]2[C@@H]3CCC4=CC(=O)C=C[C@]4(C)[C@@]3(F)[C@@H](O)C[C@]2(C)[C@@]1(O)C(=O)CO [DEX solution, Dexamethasone]",AUC0-∞,[1],317.17 ng·days/g
same,C0,[1],1737.71 ng/g
same,Cl,[1],315.29 g/day
same,Ke,[1],5.48 day⁻¹
same,clearance (CL),intravitreal injection,315.29 g/day
